Results on one compound are retold here after the NIST ThermoML archive (doi:10.1021/je1004966).

± gives the expanded uncertainty stated by the source.

The conditions of the data set: Crystal; DTA.

For `Cl.Cn1ccnc1` [1-methylimidazolium chloride], the Normal melting temperature was determined as 86.0 ± 1 °C.
